Measured values published in patent US5279956A, “Activated protein C polypeptides and anti-peptide antibodies, diagnostic methods and systems for inhibiting activated protein C” (The Scripps Research Institute, priority 1991, dated 1994).
Entries after “also recorded” stand apart in the source; their conditions may differ. No end group written: not given here.

Tested on: anti-(390-404) antibody
Experiment: Solid-phase ELISA: binding of anti-(390-404) antibody to immobilized peptides and PC
Parameters: species or system rabbit
Protocol: To determine the immunospecificity of the rabbit antisera obtained in Example 2b, ELISA assays were performed. Briefly, 50 μl of either 50 μM peptide-(390-404) prepared in Example 1 or 10 μg/ml of PC or APC prepared in Example 2c in a buffer consisting of 0.05M sodium carbonate (Na2 CO3) and 0.02% NaN3 at pH 9.0 were admixed into the wells of microtiter plates. The plates were maintained at 37° C. for one hour to permit the antigens to become operatively affixed to the well walls. After washing the antigen-coated wells with TBS, the wells were blocked with 250 μl/well of 10% bovine serum albumin (BSA) (Sigma) in TBS for one hour at 22° C. The blocking solution was then removed and the wells were subsequently washed five times with 250 μl/well of maintenance buffer (0.05M Tris-HCl, 0.1M NaCl, 0.02% NaN3, 1 mg/ml BSA, 5 mM CaCl2, 0.01% Tween 20 at pH 7.4). Fifty μl of rabbit non-immune or specific antiserum serially diluted in maintenance buffer was then admixed to the washed wells and maintained for one hour at 37° C. to allow formation of a solid liquid phase immunoreaction products. The wells were then washed three times with maintenance buffer followed by admixture of 50 μl of 2.0 μg/ml of secondary antibody (polyclonal biotinylated goat-anti-rabbit-IgG) (Pierce Biochemicals) diluted in maintenance buffer to each well for the detection of immunoreactant products. The plates were maintained for 1 hour at 37° C. after which time the secondary antibody solution was removed. After washing the wells as described above, 50 μl of 2.0 μg/ml streptavidin-alkaline-phosphatase (Pierce Biochemicals) in maintenance buffer was admixed into each well and maintained for 30 minutes at 37° C. Detection of specific immunoreaction products was obtained by admixture of 150 μl/well of 5 mg/ml p-nitrophenylphosphate (PNPP) (Pierce Biochemicals) in 0.1M diethanolamine and 0.02% NaN3 at pH 9.6 followed by measurement of the change in absorbance at 405 nm over time using the EL312 Microplate Bio-Kinetics Reader and the KinetiCalc Software Program (Biotek Instruments, Inc., Vt.). Non-specific binding was considered as the measured absorbance in 10% BSA blocked wells which served as negative controls without the preceding coating of a specific protein or peptide. Under the described conditions, non-specific binding never exceeded more than 5% of the specific binding.
The specificity of immunoaffinity purified anti-(390-404) antibody towards peptide-(390-404) and PC was evaluated by measuring the binding in solid-phase ELISA of the antibody to immobilized peptides including -(384-398), -(390-404), -(396-410), -(404-390), and -K395A-(390-404) listed in Table 1 with their corresponding SEQ ID NO, and to PC. […]

## SGLLHNYGVYTKVSR-NH2 [peptide-(384-398), -SGLLHNYGVYTKVSR]
solid-phase ELISA
  binding of anti-(390-404) antibody to immobilized peptide or PC: did not bind significantly; also recorded: did not significantly bind
Wells coated with 50 μM peptide or 10 μg/ml PC, 2 μg/ml anti-(390-404) antibody, mean of duplicates
  Anti-(390-404) (Absorbance/20 min.): 3 Absorbance/20 min.
